The nature of this data set: Tissue half-life (t1/2) and Cmax in plasma, brain, kidney and liver after oral administration to CD-1 mice. The data set is classed as in vivo. The following applies: 30 mg/kg oral gavage; for half-life: male, mouse. The method, then:
In vivo studies were conducted to observe the effect of the compounds of formula IA, IB, IIA, and IIIB in the subject animal. Male CD-1 mice, body weight of 20 grams at arrival, were used in these studies. Mice were given 30 mg/kg of compound in HPMC/Tween solution or suspension via oral gavage. Plasma, brain, and liver samples were collected at time periods of 1, 2, 4, 8, and 24 hours post dosing. One mouse was used per time point. Thus, a total of 5 mice were used for each compound tested. For sample collection, mice were euthanized with CO2. Blood samples were taken by cardiac puncture and kept on ice. Brain and liver samples were collected immediately after bleeding and the samples were kept on dry ice. For calculation of tissue half-lives (t1/2s), the terminal rate constant k was estimated by the absolute value of the slope of a log-linear regression of the terminal phase of the tissue concentration-time profile. The tissue half-life t1/2 is In(2)/k.
The following table includes t1/2 data for plasma, brain, kidney, and liver obtained after oral administration.

Setting [1] is: brain, read-out: Tissue Half-Lives, Brain (converted).
[2] abbreviates: liver, read-out: Tissue Half-Lives, Liver (converted).
Where [3] appears, read: plasma, read-out: Tissue Half-Lives, Plasma (converted).

SMILES strings stand for the structures. Read-outs that look alike come from different tables or passages of the source.

In the case of `COc1ccc(CCn2c(NC3CC3)nc3cc(NC(=N[C@H]4C[C@H]5C[C@@H]([C@@H]4C)C5(C)C)N4CC(=O)N[C@@H](C)C4)ccc3c2=O)c(F)c1` [Example 224, (3S)-N-{2-(cyclopropylamino)-3-[2-(2-fluoro-4-methoxyphenyl)ethyl]-4-oxo-3,4-dihydroquinazolin-7-yl}-3-methyl-5-oxo-N′-[(1S, 2S, 3S, 5R)-2,6,6-trimethylbicyclo[3.1.1]hept-3-yl]piperazine-1-carboximidamide], the “Tissue Half-Lives, Liver” value (liver) was found to be 3.1 h. Turning to `C[C@@H]1[C@@H](N=C(Nc2ccc3c(=O)n(CCc4ccc(Cl)cc4)c(C4CCCNC4)nc3c2)N2CC(=O)N[C@@H](C)C2)C[C@H]2C[C@@H]1C2(C)C` (stereo partly drawn) [Example 241, (3S)-N-{3-[2-(4-chlorophenyl)ethyl]-4-oxo-2-piperidin-3-yl-3,4-dihydroquinazolin-7-yl}-3-methyl-5-oxo-N′-[(1S, 2S, 3S, 5R)-2,6,6-trimethylbicyclo[3.1.1]hept-3-yl]piperazine-1-carboximidamide], the half-life is 51 h under setting [1], 17 h under setting [2] and 21 h under setting [3]. `COc1ccc(CCn2c(-c3cccnc3)nc3cc(N/C(=N/C4C[C@H]5C[C@@H]([C@@H]4C)C5(C)C)N4CCN(C#N)[C@@H](C)C4)ccc3c2=O)c(F)c1` (stereo partly drawn) [Example 246, (3S)-4-cyano-N-{3-[2-(2-fluoro-4-methoxyphenyl)ethyl]-4-oxo-2-pyridin-3-yl-3,4-dihydroquinazolin-7-yl}-3-methyl-N-[(1S, 2S, 3S, 5R)-2,6,6-trimethylbicyclo[3.1.1]hept-3-yl]piperazine-1-carboximidamide]: for the setting “brain”, the “Tissue Half-Lives, Brain” value is listed as 5.8 h. On to `COc1ccc(CCn2c(C#N)nc3cc(NC(=NC4C[C@H]5C[C@@H]([C@@H]4C)C5(C)C)N4CCN[C@@H](CF)C4)ccc3c2=O)c(F)c1` (stereo partly drawn) [Example 256, (3R)-N-{2-cyano-3-[2-(2-fluoro-4-methoxyphenyl)ethyl]-4-oxo-3,4-dihydroquinazolin-7-yl}-3-(fluoromethyl)-N′-[(1S, 2S, 5R)-2,6,6-trimethylbicyclo[3.1.1]hept-3-yl]piperazine-1-carboximidamide], for which the half-life runs as follows: under setting [1], 15 h; under setting [2], 4.3 h; under setting [3], 5.4 h. On to `C[C@@H]1[C@@H](/N=C(/Nc2ccc3c(=O)n(CCc4ccc(Cl)cc4Cl)cnc3c2)N2CCNC(=O)C2)C[C@@H]2C[C@H]1C2(C)C` [Example 260, N-{3-[2-(2,4-dichlorophenyl)ethyl]-4-oxo-3,4-dihydroquinazolin-7-yl}-3-oxo-N′-[(1R, 2S, 3S, 5S)-2,6,6-trimethylbicyclo[3.1.1]hept-3-yl]piperazine-1-carboximidamide], for which the “Tissue Half-Lives, Kidney” value is listed as 7.3 h.

As for `COc1ccc(CCn2c(-c3cccnc3)nc3cc(N/C(=N/[C@H]4C[C@@H]5C[C@H]([C@@H]4C)C5(C)C)N4C[C@@H](C)N(O)[C@@H](C)C4)ccc3c2=O)c(F)c1` [Example 296, (3R, 5S)-N-[3-{2-[2-fluoro-4-(methyloxy)phenyl]eth-yl}-4-oxo-2-(3-pyridinyl)-3,4-dihydro-7-quinazolinyl]-4-hydroxy-3,5-dimethyl-N′-[(1R, 2S, 3S, 5S)-2,6,6-trimethylbicyclo[3.1.1]hept-3-yl]-1-piperazinecarboximida-mide], the “Tissue Half-Lives, Kidney” value amounted to 3.3 h.

Source of the values: patent US7625909B2, “Substituted quinazolinone compounds” (Novartis Vaccines and Diagnostics, Inc., priority 2003, dated 2009).
